Consider 15 molecules from US8273562B2, “Method for producing 4-hydroxy-L-isoleucine” (Ajinomoto Co., Inc., priority 2006, dated 2012).

For assay [1], the target named is T1, L-Ile hydroxylase (Bacillus thuringiensis, UniProt E2GIN1).
T1 construct: made in house; host or cells: Bacillus thuringiensis 2-e-2 (natural producer; enzyme purified by chromatography, not recombinant)
As to the kind of experiment: Effects of addition of cofactors on 4-hydroxyisoleucine production with purified enzyme. The note with it: purified enzyme + 5 mM L-Ile + 5 mM cofactor; 100 mM HEPES pH 6. Type of assay: biochemical. From the text: The effects of cofactors on the production of 4-hydroxyisoleucine by hydroxylation of Ile were examined by using the purified enzyme.

Assay [2] addresses T2, enzyme in 2-e-2 cell lysate (Bacillus thuringiensis, UniProt E2GIN1).
T2 construct: the collected and washed 2-e-2 cells were disrupted using a mortar; endogenous in cells; host or cells: Bacillus thuringiensis 2-e-2 cell lysate
Put plainly: Effects of enzyme cofactors on 4-hydroxyisoleucine production with 2-e-2 cell lysate. Type of assay: biochemical. The note with it: Lysate + 5 mM Ile + 5 mM cofactor; 50 mM HEPES pH 7. How it is done: (§1) The cells were cultured in the AMKP medium until OD660 of 3.2 was achieved, then the collected and washed 2-e-2 cells were disrupted using a mortar, and suspended in a buffer (50 mM HEPES (pH 7.0), 10% of glycerol, Complete Mini (Roche)) until a suspension (lysate) is obtained having a protein concentration of about 10 mg/ml including centrifugation precipitates. The centrifugation precipitates were finally suspended in physiological saline of the same volume as the cell lysate. These were each mixed with an equal volume of a 2× dioxygenase reaction mixture (10 mM Ile, […], 10 mM 2-oxoglutaric acid, 10 mM ascorbic acid, 100 mM HEPES (pH 7.0)), and the reaction proceeded at 30° C. for 1 hour. Similarly, resting cells used for the preparation of the cell lysate were washed, and suspended in physiological saline at a concentration 10 times that in the culture broth, the suspension was mixed with an equal volume of the 2× dioxygenase reaction mixture, and the reaction proceeded.
By using a cell lysate of the 2-e-2 cells in the logarithmic growth phase, the effects of cofactors on the 4-hydroxyisoleucine production reaction by hydroxylation of Ile were examined. A 50 mM HEPES (pH 7) reaction mixture was used containing final concentrations of 5 mM Ile and 5 mM of one of various cofactors with a cell lysate of the 2-e-2 cells (lysate) in the logarithmic growth phase prepared by the method described in <5> above, and the amount of 4-hydroxyisoleucine produced was measured.

The target in assay [3] is T1, L-Ile hydroxylase. As to the kind of experiment: Effects of inhibitors on 4-hydroxyisoleucine production by purified L-Ile hydroxylase. Type of assay: biochemical. The conditions noted are these: 10 mM inhibitor; 4-hydroxyisoleucine production with no inhibitor = 100%; pH 6, 30° C., 1 hour. How it is done: Each fraction was reacted using an Ile hydroxylation activity reaction mixture (100 mM HEPES (pH 6.0), 5 mM L-Ile, 5 mM Fe^2+, 5 mM 2-oxoglutaric acid, 5 mM ascorbic acid at final concentrations) at 30° C. for 30 minutes. The enzyme was inactivated at 100° C., and then the amount of 4-hydroxyisoleucine was quantified by the aforementioned AMKP and HIL separation and measurement method. The 4-hydroxyisoleucine referred to in the subsequent analysis indicates a substance that is substantially composed of the isomer having the same retention time as that of the naturally occurring 4-hydroxyisoleucine. The enzyme activity that produces 1 nmol of HIL per minute was defined as 1 U.
By using L-Ile hydroxylase prepared as described in Example 2, the effect of inhibitors on the production of 4-hydroxyisoleucine were examined. The enzymatic reaction solution contained 5 mM Ile, 5 mM Fe^2+, 5 mM 2-oxoglutaric acid, 5 mM ascorbic acid, and 100 mM HEPES (pH 6), the reaction temperature was 30° C., and the reaction time was 1 hour. The amount of 4-hydroxyisoleucine produced when 10 mM of each inhibitor (EDTA, Cu^2+, Zn^2+) was added to the reaction system was measured. These values are relative to the 4-hydroxyisoleucine production observed with no inhibitor, which was set as 100%. The isoleucine hydroxylation activity was lost in the presence of the inhibitors.

Assay [4] addresses T2, enzyme in 2-e-2 cell lysate. As to the kind of experiment: Effect of inhibitors on 4-hydroxyisoleucine production in the 2-e-2 cell lysate. Type of assay: biochemical. The conditions noted are these: 10 mM inhibitor, pH 6, 30° C., 1 hour. The method, then: as §1
By using a cell lysate prepared from 2-e-2 cells at OD660 of 7 according to the method described in <5>, the effects of inhibitors on the 4-hydroxyisoleucine production were examined. […] The dioxygenase reaction mixture contained 5 mM Ile, 5 mM Fe^2+, 5 mM 2-oxoglutaric acid, 5 mM ascorbic acid, and 100 mM HEPES (pH 6), the reaction temperature was 30° C., and the reaction time was 1 hour. The amount of 4-hydroxyisoleucine which was produced when 10 mM of each inhibitor (EDTA, Cu^2+, Zn^2+) was added to the reaction system was measured. 4-Hydroxyisoleucine was analyzed by the method described in <2>. The isoleucine hydroxylation activity was inhibited by the inhibitors.

The target of assay [5] is T1, L-Ile hydroxylase. As to the kind of experiment: Substrate reaction characteristics of purified L-Ile hydroxylase. Type of assay: biochemical. The note with it: 5 mM amino acid; purified enzyme; pH 6, 30° C., 1 hour; HPLC. The method, then:
By using L-Ile hydroxylase prepared as described in Example 2, the reaction characteristics for various amino acids were evaluated. The enzyme solution and the reaction mixture were mixed, and then the reaction proceeded at 30° C. for 1 hour, and the production of new substances was evaluated by HPLC analysis. The enzymatic reaction solution contained 5 mM amino acid, 5 mM Fe^2+, 5 mM 2-oxoglutaric acid, 5 mM ascorbic acid, and 100 mM HEPES (pH 6). In addition to L-isoleucine, the amino acids D-isoleucine, L-leucine, L-valine, L-glutamic acid, and L-lysine were also individually evaluated. The produced 4-hydroxyisoleucine was analyzed as in Example 1. Like when using a cell lysate, production of a new substance could not be confirmed for amino acids other than L-isoleucine.

Assay [6] concerns strain 2-e-2. Put plainly: Effect of addition of cofactors on AMKP production in culture of strain 2-e-2. Type of assay: cell-based, Bacillus thuringiensis. The conditions noted are these: culture supernatant; 30° C., 22 hours; control 1.34. The method, then:
The possibility of molecular oxygen uptake by hydroxylation was considered as a possible mechanism for the production of AMKP. Accordingly, the production of AMKP was analyzed when NAD(P)H, or Fe^2+, 2-oxoglutaric acid and ascorbic acid, were added during the culture of the 2-e-2 strain. NAD(P)H is a cofactor of monooxygenases and Fe^2+, 2-oxoglutaric acid and ascorbic acid are cofactors of dioxygenases.
The culture medium used in the previous screening was used as a control, and the production of AMKP was compared among cultures containing the cofactors as shown in Table 3. The culture temperature was 30° C., and the culture time was 22 hours. The concentration of AMKP in the culture supernatants was measured.

Assay [7] addresses T2, enzyme in 2-e-2 cell lysate. Put plainly: Substrate reaction characteristics of enzyme in 2-e-2 cell lysate. The note with it: 5 mM amino acid, pH 7, 30° C., 1 hour, TLC or amino acid analysis. Type of assay: biochemical. The method, then: as §1
By using a cell lysate prepared from 2-e-2 cells at OD660 of 7 according to the method described in <5>, the reaction characteristics for various amino acids were evaluated. The cell lysate and a substrate solution were mixed, then the reaction proceeded at 30° C. for 1 hour, and the production of new substances was evaluated by TLC or amino acid analysis. The substrate reaction mixture contained 5 mM amino acid, 5 mM Fe^2+, 5 mM 2-oxoglutaric acid, 5 mM ascorbic acid, and 100 mM HEPES (pH 7). In addition to L-isoleucine, the amino acids L-leucine, L-valine, L-glutamic acid, and L-lysine were each individually evaluated. The 4-hydroxyisoleucine which was produced was analyzed by the method described in Example 1. Production of amino acids other than L-isoleucine was not observed.

Assay [8] relates to dioxygenase activity in fenugreek extract. The note with it: cited from earlier work.
Assay [9] can be described thus: Production of HIL from Ile with crude enzyme solution of E. coli expressing ido genes. The note with it: 28° C., 3 hours, control (pET21b) 11. Type of assay: biochemical, Escherichia coli. The method, then: The plasmid expressing the ido gene from B. cereus ATCC 14579, B. thuringiensis AKU238, or B. weihenstephanensis KBAB4, which was constructed in Example 8, was introduced into E. coli Rosetta2 (DE3), and the transformants were cultivated with shaking in LB medium supplemented with 50 μg/ml ampicilin (preculture). By seeding the preculture broth in 50 ml LB medium at 1%, the main culture was carried out at 37° C. 2 hours after the start of the cultivation, IPTG was added to a final concentration of 1 mM, and the cultivation was carried out for an additional 3 hours. After completion of the cultivation, the cells were harvested, washed, suspended in 1 ml of 20 mM Tris-HCl (pH 7.6), and disrupted with a sonicator (INSONATOR 201M, KUBOTA). The lysate was centrifuged at 15000 rpm for 10 minutes, and the supernatant was used as a crude enzyme solution.
By using the crude enzyme solution prepared in (1), the conversion of Ile to HIL was measured. The reaction mixture is described below. The reaction mixture was reacted with shaking (300 rpm) at 28° C. for 3 hours, and then the amount of HIL produced was determined by HPLC.

T2 sequence (E2GIN1 2-240): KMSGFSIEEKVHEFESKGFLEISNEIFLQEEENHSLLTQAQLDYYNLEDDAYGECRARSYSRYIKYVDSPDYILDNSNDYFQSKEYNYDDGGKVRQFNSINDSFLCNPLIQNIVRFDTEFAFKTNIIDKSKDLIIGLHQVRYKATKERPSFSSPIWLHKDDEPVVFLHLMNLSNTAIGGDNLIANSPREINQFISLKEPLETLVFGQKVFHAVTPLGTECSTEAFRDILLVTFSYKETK
T1 sequence (E2GIN1 2-240): as above

For `O=C1O[C@H]([C@@H](O)CO)C(O)=C1O` [Ascorbate, ascorbic acid], the “HIL” value in assay [1] stood at 0.00 mM. In addition, the “HIL production” value in assay [2] is 0.00 mM.
Take `[Cu+2]` [Cu^2+]: in assay [3], the “Relative activity (%)” value turned out to be 0%. In addition, in assay [4], the “isoleucine hydroxylation activity in presence of inhibitor” value is “inhibited”.
As for `CC[C@@H](C)[C@@H](N)C(=O)O` [D-Isoleucine, D-isoleucine], in assay [5], the “Product (reactivity for each amino acid)” value was “None”.
As for `[Fe+2]` [Fe^2+], the “HIL” value in [1] turned out to be 0.00 mM. Further, in assay [6], the “AMKP concentration” value is 2.53 mM. Moreover, in [2], the “HIL production” value was 0.00 mM.
`N[C@@H](CCC(=O)O)C(=O)O` [L-Glutamic acid, L-glutamic acid]: in assay [7], the “Product (reactivity for various amino acids)” value is recorded as “None”. The “Product (reactivity for each amino acid)” value in assay [5] is on record as “None”.
As to `CC[C@H](C)[C@H](N)C(=O)O` [L-Isoleucine, L-isoleucine], the “isoleucine concentration that inhibits the activity of the enzyme” value in [8] is on record as no less than 20 mM. Further, the “Product (reactivity for various amino acids)” value in assay [7] was “Produced (HIL)”. The “Product (reactivity for each amino acid)” value in assay [5] is “Produced (HIL)”.
As for `CC(C)C[C@H](N)C(=O)O` [L-Leucine, L-leucine], the “Product (reactivity for various amino acids)” value in [7] is given as “None”. Moreover, the “Product (reactivity for each amino acid)” value in assay [5] is “None”.
For the molecule `NCCCC[C@H](N)C(=O)O` [L-Lysine, L-lysine], the “Product (reactivity for various amino acids)” value in assay [7] is recorded as “None”. Also, the “Product (reactivity for each amino acid)” value in [5] was “None”.
Turning to `CC(C)[C@H](N)C(=O)O` [L-Valine, L-valine], the “Product (reactivity for various amino acids)” value in [7] is listed as “None”. Moreover, in assay [5], the “Product (reactivity for each amino acid)” value was “None”.
Take `[Zn+2]` [Zn^2+]: the “Relative activity (%)” value in [3] stood at 0%. Moreover, the “isoleucine hydroxylation activity in presence of inhibitor” value in assay [4] is “inhibited”.
On to `O=C(O)CCC(=O)C(=O)O` [α-KG, 2-oxoglutaric acid], for which, in assay [1], the “HIL” value is 0.00 mM. Moreover, in assay [2], the “HIL production” value is reported as 0.00 mM.
NAD(P)H: in assay [6], the “AMKP concentration” value is 1.58 mM.

B1: B. thuringiensis israelensis ATCC35646: crude enzyme solution with IDO from B. thuringiensis israelensis ATCC 35646, SEQ ID NO: 8 (protein, listed as Bacillus thuringiensis)
chain: KMSGFSIEEKVHEFESKGFLEISNEIFLQEEENHSLLTQAQLDYYNLEDDAYGECRARSYSRYIKYVDSPDYILDNSNDYFQSKEYNYDDGGKVRQFNSINDSFLCNPLIQNIVHFDTEFAFKTNIIDKSKDLIIGLHQVRYKATKERPSFSSPIWLHKDDEPVVFLHLMNLSNTAIGGDNLIANSPREINQFISLKEPLETLVFGQKVFHAVTPLGTECSTEAFRDILLVTFSYKETK
For B1, in assay [9], the “Amount of HIL produced from Ile, HIL” value was found to be 2150 µM.

B2: B. weihenstephanensis KBAB4: crude enzyme solution of E. coli expressing ido gene from B. weihenstephanensis KBAB4, SEQ ID NO: 21 (protein, listed as Bacillus weihenstephanensis)
chain: MLTTVSNKTSSFDVEQKVHEFESNGYIQIFNDIFLQDQEDQALLTKAQLDYYSLQNDAYGECRARAYSRYIKYAGSSDYVLDTDNGYFQSEEYNYDDGGKIRNFNSITDEFLHNSLIEKIVRFDSEFASNTNILDTSKDLVIGLHQVRYKATRENPSFSSPIWLHKDDEPIVFLHLMNLSNTALGGDNLIANSPREINKLISLKDPLETLVFGQKVFHAVTPLGTECNTEALRDILLVTFSYKEPK
Turning to B2, the “Amount of HIL produced from Ile, HIL” value in assay [9] is 3116 µM.

B3: B. thuringiensis AKU238: crude enzyme solution of E. coli expressing ido gene from B. thuringiensis AKU238, SEQ ID NO: 17 (protein, listed as Bacillus thuringiensis)
chain: MEVFIMTFVLSKMSGFSIEEKVHEFESKGFLEISNEIFLQEEENHRLLTQAQLDYYNLEDDAYGECRARSYSRYIKYVDSPDYILDNSNDYFQSKEYNYDDGGKVRQFNSINDSFLCNPLIQNIVRFDTEFAFKTNIIDTSKDLIIGLHQVRYKATKERPSFSSPIWLHKDDEPVVFLHLMNLSNTAIGGDNLIANSPREINQFISLKEPLETLVFGQKVFHAVTPLGTECSTEAFRDILLVTFSYKETK
Consider B3, for which, in assay [9], the “Amount of HIL produced from Ile, HIL” value amounted to 2016 µM.
